Molecular target: T1, PAK4 (Homo sapiens, UniProt O96013)
T1 construct: purchased Thermo Fisher Scientific (Life Technologies) SelectScreen
Assay: SelectScreen Z'LYTE
Format: biochemical
How it was run: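 Percent values come from Thermo SelectScreen profiling of NU5455, combining activity and binding assays. CSF1R was run in Z'LYTE format at Km app ATP, and CAMK1 in Adapta format with ATP listed at 10.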

T1 sequence (O96013 whole entry): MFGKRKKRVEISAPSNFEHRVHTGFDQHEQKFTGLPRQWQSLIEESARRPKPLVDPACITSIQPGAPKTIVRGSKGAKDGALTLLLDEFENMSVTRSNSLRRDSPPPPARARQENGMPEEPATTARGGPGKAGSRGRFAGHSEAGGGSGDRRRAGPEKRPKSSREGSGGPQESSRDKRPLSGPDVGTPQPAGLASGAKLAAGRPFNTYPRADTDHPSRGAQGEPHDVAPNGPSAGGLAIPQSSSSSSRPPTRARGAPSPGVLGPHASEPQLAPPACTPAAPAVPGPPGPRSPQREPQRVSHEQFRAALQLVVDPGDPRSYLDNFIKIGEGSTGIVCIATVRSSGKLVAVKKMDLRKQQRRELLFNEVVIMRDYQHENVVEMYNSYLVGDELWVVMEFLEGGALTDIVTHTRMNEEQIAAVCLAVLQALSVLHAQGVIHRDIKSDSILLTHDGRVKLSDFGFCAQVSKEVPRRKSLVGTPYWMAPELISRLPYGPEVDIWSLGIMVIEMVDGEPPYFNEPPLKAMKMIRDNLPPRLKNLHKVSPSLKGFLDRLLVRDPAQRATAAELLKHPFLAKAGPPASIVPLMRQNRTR

CN(C(=O)CN1CCOCC1)c1ccc2sc3c(-c4cccc5c(=O)cc(N6CC7CCC(C6)O7)oc45)cccc3c2c1 [NU5455]
inhibition at 1 µM: -3.3%
